Assay results taken from patent US12479831B2, “Substituted N(-methyl-D3)pyridazine-3-carboxamide or M-(methyl-D3)-nicotinamide compounds as IL-12, IL-23 and/or IFNα modulators” (BRISTOL-MYERS SQUIBB COMPANY, priority 2020, dated 2025).

system: IFNα-Induced STAT Phosphorylation in Human Whole Blood; assay: IFNα-Induced STAT Phosphorylation in Human Whole Blood; assay type: cell-based; settings: 1 h incubation with compound, 1000 U/mL recombinant human IFNα A/D for 15 min, pSTAT5 (pY694) median fluorescence intensity in CD3 positive population, read-out: hWB IC50
Experimental: IFNα-Induced STAT Phosphorylation in Human Whole Blood
After an hour long incubation with compound, human whole blood (drawn with either EDTA or ACD-A as anti-coagulant) was stimulated with 1000 U/mL recombinant human IFNα A/D (R&D Systems 11200-2) for 15 min. The stimulation was stopped by adding Fix/Lyse buffer (BD 558049). Cells were stained with a CD3 FITC antibody (BD 555916), washed, and permeabilized on ice using Perm III buffer (BD 558050). […] The amount of pSTAT5 expression was quantitated by median fluorescence intensity after gating on the CD3 positive population.
IFNα-Induced STAT Phosphorylation in Human Whole Blood Inhibition Data

Compound	IC50 [nM]
[2H]C([2H])([2H])NC(=O)c1nnc(NC(=O)C2CC2)cc1Nc1cccc(-c2cnc(C(=O)N3CC[C@@H](F)C3)cn2)c1OC [Example 37, (R)-6-(cyclopropanecarboxamido)-4-((3-(5-(3-fluoropyrrolidine-1-carbonyl)pyrazin-2-yl)-2-methoxyphenyl)amino)-N-(methyl-d3)pyridazine-3-carboxamide]	97
[2H]C([2H])([2H])NC(=O)c1nnc(NC(=O)C2CC2)cc1Nc1cc(F)cc(-c2ncc(C(=O)N(C)CC)cn2)c1OC [Example 54, 6-(cyclopropanecarboxamido)-4-((3-(5-(ethyl(methyl)carbamoyl)pyrimidin-2-yl)-5-fluoro-2-methoxyphenyl)amino)-N-(methyl-d3)pyridazine-3-carboxamide]	80
[2H]C([2H])([2H])NC(=O)c1nnc(NC(=O)C2CC2)cc1Nc1cccc(-c2cnc(C(=O)N3CCOCC3)cn2)c1OC [Example 38, 6-(cyclopropanecarboxamido)-4-((2-methoxy-3-(5-(morpholine-4-carbonyl)pyrazin-2-yl)phenyl)amino)-N-(methyl-d3)pyridazine-3-carboxamide]	44
[2H]C([2H])([2H])NC(=O)c1nnc(NC(=O)C2CC2)cc1Nc1cccc(-c2ccc(S(C)(=O)=O)cn2)c1OC [Example 110]	480
[2H]C([2H])([2H])NC(=O)c1nnc(NC(=O)C2CC2)cc1Nc1cccc(-c2ncc3ncn(C)c3n2)c1OC [Example 1, 6-(Cyclopropanecarboxamido)-4-((2-methoxy-3-(9-methyl-9H-purin-2-yl)phenyl)amino)-N-(methyl-d3)pyridazine-3-carboxamide]	254
[2H]C([2H])([2H])NC(=O)c1nnc(NC(=O)C2CC2)cc1Nc1cccc(-c2cnc(C3(O)CCOC3)cn2)c1OC (centres unmarked) [Example 34, 6-(cyclopropanecarboxamido)-4-((3-(5-(3-hydroxytetrahydrofuran-3-yl)pyrazin-2-yl)-2-methoxyphenyl)amino)-N-(methyl-d3)pyridazine-3-carboxamide]	36
[2H]C([2H])([2H])NC(=O)c1nnc(Nc2ccc(C)nn2)cc1Nc1cccc(-c2ncc(F)cn2)c1OC [Example 94, 4-((3-(5-fluoropyrimidin-2-yl)-2-methoxyphenyl)amino)-N-(methyl-d3)-6-((6-methylpyridazin-3-yl)amino)pyridazine-3-carboxamide]	38
[2H]C([2H])([2H])NC(=O)c1nnc(NC(=O)C2CC2)cc1Nc1cccc(-c2ncc(N3CCCC3=O)cn2)c1OC [Example 112]	27
[2H]C([2H])([2H])NC(=O)c1nnc(NC(=O)C2CC2)cc1Nc1cc(F)cc(-c2ncccn2)c1OC [Example 7, 6-(cyclopropanecarboxamido)-4-((5-fluoro-2-methoxy-3-(pyrimidin-2-yl)phenyl)amino)-N-(methyl-d3)pyridazine-3-carboxamide]	196
[2H]C([2H])([2H])NC(=O)c1nnc(Nc2cnc(C(C)(C)O)cn2)cc1Nc1cccc(-c2ncc(F)cn2)c1OC [Example 101, 4-((3-(5-fluoropyrimidin-2-yl)-2-methoxyphenyl)amino)-6-((5-(2-hydroxypropan-2-yl)pyrazin-2-yl)amino)-N-(methyl-d3)pyridazine-3-carboxamide]	93
[2H]C([2H])([2H])NC(=O)c1nnc(NC(=O)C2CC2)cc1Nc1cccc(-c2ncc(C3CCOC3)cn2)c1OC (centres unmarked) [Example 55, 6-(Cyclopropanecarboxamido)-4-((2-methoxy-3-(5-(tetrahydrofuran-3-yl)pyrimidin-2-yl)phenyl)amino)-N-(methyl-d3)pyridazine-3-carboxamide]	47
[2H]C([2H])([2H])NC(=O)c1nnc(Nc2cc3ccccc3nn2)cc1Nc1cccc(-c2ncc(F)cn2)c1OC [Example 100, 6-(cinnolin-3-ylamino)-4-((3-(5-fluoropyrimidin-2-yl)-2-methoxyphenyl)amino)-N-(methyl-d3)pyridazine-3-carboxamide]	165
[2H]C([2H])([2H])NC(=O)c1nnc(NC(=O)C2CC2)cc1Nc1cccc(-c2cn(C)c(=O)cn2)c1OC [Example 10, 6-(cyclopropanecarboxamido)-4-((2-methoxy-3-(4-methyl-5-oxo-4,5-dihydropyrazin-2-yl)phenyl)amino)-N-(methyl-d3)pyridazine-3-carboxamide]	194
[2H]C([2H])([2H])NC(=O)c1nnc(NC(=O)C2CC2)cc1Nc1cccc(-c2nccc(C(=O)N(C)C)n2)c1OC [Example 49, 6-(cyclopropanecarboxamido)-4-((3-(4-(dimethylcarbamoyl)pyrimidin-2-yl)-2-methoxyphenyl)amino)-N-(methyl-d3)pyridazine-3-carboxamide]	327
[2H]C([2H])([2H])NC(=O)c1cnc(NC(=O)C2CC2)cc1Nc1cccc(-c2cnc(-n3cncn3)cn2)c1OC [Example 60, 4-((3-(5-(1H-1,2,4-triazol-1-yl)pyrazin-2-yl)-2-methoxyphenyl)amino)-6-(cyclopropanecarboxamido)-N-(methyl-d3)nicotinamide]	1040
[2H]C([2H])([2H])NC(=O)c1nnc(NC(=O)C2CC2)cc1Nc1cccc(-c2cnc(C(=O)NC)cn2)c1OC [Example 39, 6-(cyclopropanecarboxamido)-4-((2-methoxy-3-(5-(methylcarbamoyl)pyrazin-2-yl)phenyl)amino)-N-(methyl-d3)pyridazine-3-carboxamide]	218
[2H]C([2H])([2H])NC(=O)c1nnc(NC(=O)C2CC2)cc1Nc1cccc(-c2ncc(N3CCN(C)C3=O)cn2)c1OC [Example 116]	73

Second part, the molecule after the results:

IC50 [nM]	Compound
79	[2H]C([2H])([2H])NC(=O)c1nnc(Nc2ccc(C(C)(C)O)cn2)cc1Nc1cccc(-c2ncc(F)cn2)c1OC [Example 103, 4-((3-(5-fluoropyrimidin-2-yl)-2-methoxyphenyl)amino)-6-((5-(2-hydroxypropan-2-yl)pyridin-2-yl)amino)-N-(methyl-d3)pyridazine-3-carboxamide]
41	[2H]C([2H])([2H])NC(=O)c1nnc(Nc2ccc(C(C)(C)O)cn2)cc1Nc1cc(F)cc(-c2ncccn2)c1OC [Example 104, 4-((5-fluoro-2-methoxy-3-(pyrimidin-2-yl)phenyl)amino)-6-((5-(2-hydroxypropan-2-yl)pyridin-2-yl)amino)-N-(methyl-d3)pyridazine-3-carboxamide]
145	[2H]C([2H])([2H])NC(=O)c1nnc(Nc2cn(CC)nn2)cc1Nc1cccc(-c2ncccn2)c1OC [Example 88, 6-((1-ethyl-1H-1,2,3-triazol-4-yl)amino)-4-((2-methoxy-3-(pyrimidin-2-yl)phenyl)amino)-N-(methyl-d3)pyridazine-3-carboxamide]
182	[2H]C([2H])([2H])NC(=O)c1nnc(Nc2ccc(C#N)nn2)cc1Nc1cccc(-c2ncc(F)cn2)c1OC [Example 95, 6-((6-cyanopyridazin-3-yl)amino)-4-((3-(5-fluoropyrimidin-2-yl)-2-methoxyphenyl)amino)-N-(methyl-d3)pyridazine-3-carboxamide]
90	[2H]C([2H])([2H])NC(=O)c1cnc(Nc2ccccn2)cc1Nc1cccc(-c2ncc(F)cn2)c1OC [Example 70, 4-((3-(5-fluoropyrimidin-2-yl)-2-methoxyphenyl)amino)-N-(methyl-d3)-6-(pyridin-2-ylamino)nicotinamide]
96	[2H]C([2H])([2H])NC(=O)c1nnc(Nc2cnn(CC)n2)cc1Nc1cccc(-c2ncccn2)c1OC [Example 86, 6-((2-ethyl-2H-1,2,3-triazol-4-yl)amino)-4-((2-methoxy-3-(pyrimidin-2-yl)phenyl)amino)-N-(methyl-d3)pyridazine-3-carboxamide]
87	[2H]C([2H])([2H])NC(=O)c1cnc(Nc2ccc(OC)nn2)cc1Nc1cccc(-c2ncc(F)cn2)c1OC [Example 74, 4-((3-(5-fluoropyrimidin-2-yl)-2-methoxyphenyl)amino)-6-((6-methoxypyridazin-3-yl)amino)-N-(methyl-d3)nicotinamide]
168	[2H]C([2H])([2H])NC(=O)c1cnc(Nc2cnc(C#N)cn2)cc1Nc1cccc(-c2ncccn2)c1OC [Example 72, 6-((5-cyanopyrazin-2-yl)amino)-4-((2-methoxy-3-(pyrimidin-2-yl)phenyl)amino)-N-(methyl-d3)nicotinamide]
109	[2H]C([2H])([2H])NC(=O)c1cnc(Nc2cc(C#N)n(C)n2)cc1Nc1cccc(-c2ncc(F)cn2)c1OC [Example 62, 6-((5-cyano-1-methyl-1H-pyrazol-3-yl)amino)-4-((3-(5-fluoropyrimidin-2-yl)-2-methoxyphenyl)amino)-N-(methyl-d3)nicotinamide]
19	[2H]C([2H])([2H])NC(=O)c1nnc(Nc2cc(C(C)(C)O)n(C)n2)cc1Nc1cc(F)cc(-c2ncccn2)c1OC [Example 84, 4-((5-fluoro-2-methoxy-3-(pyrimidin-2-yl)phenyl)amino)-6-((5-(2-hydroxypropan-2-yl)-1-methyl-1H-pyrazol-3-yl)amino)-N-(methyl-d3)pyridazine-3-carboxamide]
225	[2H]C([2H])([2H])NC(=O)c1cnc(Nc2cc(C#N)n(C)n2)cc1Nc1cccc(-c2ncccn2)c1OC [Example 61, 6-((5-Cyano-1-methyl-1H-pyrazol-3-yl)amino)-4-((2-methoxy-3-(pyrimidin-2-yl)phenyl)amino)-N-(methyl-d3)nicotinamide]
81	[2H]C([2H])([2H])NC(=O)c1nnc(Nc2cc3n(n2)CCN(C)C3=O)cc1Nc1cccc(-c2ncc(F)cn2)c1OC [Example 107, 4-((3-(5-Fluoropyrimidin-2-yl)-2-methoxyphenyl)amino)-N-(methyl-d3)-6-((5-methyl-4-oxo-4,5,6,7-tetrahydropyrazolo[1,5-a]pyrazin-2-yl)amino)pyridazine-3-carboxamide]
